{
  "source": "paper PMC5218480",
  "about": "(PLoS ONE, 2017)",
  "system": "MV-4-11 cells",
  "assay": "Gene expression microarray analysis (Affymetrix PrimeView) and GSEA",
  "format": "cell-based, human",
  "parameters": "RFU PODN (11730768_x_at) / Fold change /veh PODN (11730768_x_at) / RFU LINC00158 (11744669_a_at) / Fold change /veh LINC00158 (11744669_a_at) / RFU DUSP10 (11751237_a_at) / Fold change /veh DUSP10 (11751237_a_at) / RFU ID3 (11757404_x_at) / Fold change /veh ID3 (11757404_x_at) / RFU PLEKHG5 (11737974_s_at) / Fold change /veh PLEKHG5 (11737974_s_at) / RFU LRRC4B (11730491_at) / Fold change /veh LRRC4B (11730491_at) / RFU GIMAP4 (11747438_a_at) / Fold change /veh GIMAP4 (11747438_a_at) / RFU KRT8 (11758183_x_at) / Fold change /veh KRT8 (11758183_x_at) / RFU CNN1 (11734310_a_at) / Fold change /veh CNN1 (11734310_a_at) / RFU VPS37D (11726825_at) / Fold change /veh VPS37D (11726825_at) / RFU C10orf10 (11716522_x_at) / Fold change /veh C10orf10 (11716522_x_at) / RFU KIR2DL2 /// KIR2DL4 /// KIR2DL5A /// KIR2DL5B /// KIR2DS1 /// KIR2DS2 /// KIR2DS3 /// KIR2DS4 /// KIR3DL3 /// KIR3DL3 /// KIR3DS1 (11738374_at) / Fold change /veh KIR2DL2 /// KIR2DL4 /// KIR2DL5A /// KIR2DL5B /// KIR2DS1 /// KIR2DS2 /// KIR2DS3 /// KIR2DS4 /// KIR3DL3 /// KIR3DL3 /// KIR3DS1 (11738374_at) / RFU C1QL1 (11718748_at) / Fold change /veh C1QL1 (11718748_at) / RFU TMPRSS4 (11747572_a_at) / Fold change /veh TMPRSS4 (11747572_a_at) / RFU HAMP (11756126_x_at) / Fold change /veh HAMP (11756126_x_at) / RFU RNFT2 (11725882_a_at) / Fold change /veh RNFT2 (11725882_a_at) / RFU NR4A2 (11747474_a_at) / Fold change /veh NR4A2 (11747474_a_at) / RFU ABCC12 (11746883_a_at) / Fold change /veh ABCC12 (11746883_a_at) / RFU TMEM136 (11760407_x_at) / Fold change /veh TMEM136 (11760407_x_at) / RFU CLDN22 /// WWC2 (11732394_at) / Fold change /veh CLDN22 /// WWC2 (11732394_at) / RFU HLA-DPB1 (11760878_x_at) / Fold change /veh HLA-DPB1 (11760878_x_at) / RFU SPINT1 (11716480_a_at) / Fold change /veh SPINT1 (11716480_a_at) / RFU GAP43 (11754022_s_at) / Fold change /veh GAP43 (11754022_s_at) / RFU A4GNT (11735810_at) / Fold change /veh A4GNT (11735810_at) / RFU PRB3 (11715151_x_at) / Fold change /veh PRB3 (11715151_x_at) / RFU TUBB4B (11761932_at) / Fold change /veh TUBB4B (11761932_at) / RFU CAPN14 (11732068_a_at) / Fold change /veh CAPN14 (11732068_a_at) / RFU TMCC2 (11721928_a_at) / Fold change /veh TMCC2 (11721928_a_at) / RFU IRGQ (11745062_a_at) / Fold change /veh IRGQ (11745062_a_at) / RFU FAM174B (11720279_a_at) / Fold change /veh FAM174B (11720279_a_at) / RFU TMPRSS4 (11748680_a_at) / Fold change /veh TMPRSS4 (11748680_a_at) / RFU FAM212B (11763350_a_at) / Fold change /veh FAM212B (11763350_a_at) / RFU PLEKHG5 (11743358_a_at) / Fold change /veh PLEKHG5 (11743358_a_at) / RFU ZSCAN30 (11745921_a_at) / Fold change /veh ZSCAN30 (11745921_a_at) / RFU CMKLR1 (11741424_a_at) / Fold change /veh CMKLR1 (11741424_a_at) / RFU LOC101060620 /// MAPK8IP1 (11723275_at) / Fold change /veh LOC101060620 /// MAPK8IP1 (11723275_at) / RFU SPTSSB (11747773_x_at) / Fold change /veh SPTSSB (11747773_x_at) / RFU PRSS12 (11739890_at) / Fold change /veh PRSS12 (11739890_at) / RFU BIN1 (11741810_x_at) / Fold change /veh BIN1 (11741810_x_at) / RFU WNT11 (11732464_a_at) / Fold change /veh WNT11 (11732464_a_at) / RFU C10orf10 (11716521_a_at) / Fold change /veh C10orf10 (11716521_a_at) / RFU C5orf56 (11738089_at) / Fold change /veh C5orf56 (11738089_at) / RFU CYB561 (11721691_x_at) / Fold change /veh CYB561 (11721691_x_at) / RFU ANKRD19P (11752326_a_at) / Fold change /veh ANKRD19P (11752326_a_at) / RFU OR2T12 /// OR2T33 /// OR2T8 (11738714_s_at) / Fold change /veh OR2T12 /// OR2T33 /// OR2T8 (11738714_s_at) / RFU VCAN (11748164_a_at) / Fold change /veh VCAN (11748164_a_at) / RFU JSRP1 (11732532_at) / Fold change /veh JSRP1 (11732532_at) / RFU KRTAP10-11 (11738290_x_at) / Fold change /veh KRTAP10-11 (11738290_x_at) / RFU MYO3A (11730013_a_at) / Fold change /veh MYO3A (11730013_a_at) / RFU EBF3 (11725865_a_at) / Fold change /veh EBF3 (11725865_a_at) / RFU CAMK2N1 (11719241_x_at) / Fold change /veh CAMK2N1 (11719241_x_at) / RFU C5orf56 (11738088_a_at) / Fold change /veh C5orf56 (11738088_a_at) / RFU OLFML3 (11715873_a_at) / Fold change /veh OLFML3 (11715873_a_at) / RFU LOC100653217 /// NTM (11731650_a_at) / Fold change /veh LOC100653217 /// NTM (11731650_a_at) / RFU MAPK11 (11762145_a_at) / Fold change /veh MAPK11 (11762145_a_at) / RFU FIZ1 (11724087_x_at) / Fold change /veh FIZ1 (11724087_x_at) / RFU OASL (11726364_x_at) / Fold change /veh OASL (11726364_x_at) / RFU SOX15 (11748057_x_at) / Fold change /veh SOX15 (11748057_x_at) / RFU CD79A (11719716_a_at) / Fold change /veh CD79A (11719716_a_at) / RFU HIST1H1D (11736915_at) / Fold change /veh HIST1H1D (11736915_at) / RFU CASKIN2 (11723855_a_at) / Fold change /veh CASKIN2 (11723855_a_at) / RFU LOC730098 (11760151_x_at) / Fold change /veh LOC730098 (11760151_x_at) / RFU OR4N2 (11742367_at) / Fold change /veh OR4N2 (11742367_at) / RFU PRRT2 (11749266_a_at) / Fold change /veh PRRT2 (11749266_a_at) / RFU SNX32 (11753110_a_at) / Fold change /veh SNX32 (11753110_a_at) / RFU CDHR5 (11726645_a_at) / Fold change /veh CDHR5 (11726645_a_at) / RFU RCAN1 (11760418_a_at) / Fold change /veh RCAN1 (11760418_a_at) / RFU FAM167A (11723789_a_at) / Fold change /veh FAM167A (11723789_a_at) / RFU FAM26E (11764081_at) / Fold change /veh FAM26E (11764081_at) / RFU ISYNA1 (11749810_s_at) / Fold change /veh ISYNA1 (11749810_s_at) / RFU ACY1 (11761880_at) / Fold change /veh ACY1 (11761880_at) / RFU 11764098_at / Fold change /veh 11764098_at / RFU SAMD14 (11745864_x_at) / Fold change /veh SAMD14 (11745864_x_at) / RFU NPB (11741838_a_at) / Fold change /veh NPB (11741838_a_at) / RFU TMPRSS6 (11731388_a_at) / Fold change /veh TMPRSS6 (11731388_a_at) / RFU KRTAP10-2 (11738614_at) / Fold change /veh KRTAP10-2 (11738614_at) / RFU ARHGAP8 /// PRR5-ARHGAP8 (11727945_x_at) / Fold change /veh ARHGAP8 /// PRR5-ARHGAP8 (11727945_x_at) / RFU KRTAP5-7 /// NADSYN1 (11734609_at) / Fold change /veh KRTAP5-7 /// NADSYN1 (11734609_at) / RFU RASL12 (11751679_a_at) / Fold change /veh RASL12 (11751679_a_at) / RFU CDKN2B (11736163_a_at) / Fold change /veh CDKN2B (11736163_a_at) / RFU PRF1 (11729649_at) / Fold change /veh PRF1 (11729649_at) / RFU, ZNF638 /// ZNF638-IT1 / Fold change vs veh, ZNF638 /// ZNF638-IT1 / RFU, PANK3 / Fold change vs veh, PANK3 / RFU, SH3YL1 / Fold change vs veh, SH3YL1 / RFU, ZEB2 / Fold change vs veh, ZEB2 / RFU, NRIP1 / Fold change vs veh, NRIP1 / RFU, PTTG1IP / Fold change vs veh, PTTG1IP / RFU, CAPN2 / Fold change vs veh, CAPN2 / RFU, MED14 / Fold change vs veh, MED14 / RFU, SNORA58 / Fold change vs veh, SNORA58 / RFU, C1orf63 / Fold change vs veh, C1orf63 / RFU, LRRFIP1 / Fold change vs veh, LRRFIP1 / RFU, NDUFAF7 / Fold change vs veh, NDUFAF7 / RFU, SLC12A2 / Fold change vs veh, SLC12A2 / RFU, IBTK / Fold change vs veh, IBTK / RFU, ESF1 / Fold change vs veh, ESF1 / Fold change vs veh, TMEM50B / RFU, TAOK1 / Fold change vs veh, TAOK1 / RFU, ACBD3 / Fold change vs veh, ACBD3 / RFU, TMA16 / Fold change vs veh, TMA16 / RFU, RWDD3 / Fold change vs veh, RWDD3 / RFU, BCAT1 / Fold change vs veh, BCAT1 / RFU, EDEM3 / Fold change vs veh, EDEM3 / RFU, TMEM33 / Fold change vs veh, TMEM33 / RFU, WDR75 / Fold change vs veh, WDR75 / RFU, AHCTF1 / Fold change vs veh, AHCTF1 / RFU, TFRC / Fold change vs veh, TFRC / RFU, ZDHHC17 / Fold change vs veh, ZDHHC17 / RFU, NOM1 / Fold change vs veh, NOM1 / RFU, ARL8B / Fold change vs veh, ARL8B / RFU, ZBTB11 / Fold change vs veh, ZBTB11 / RFU, TAMM41 / Fold change vs veh, TAMM41 / RFU, KIAA1704 /// LOC100996395 / Fold change vs veh, KIAA1704 /// LOC100996395 / RFU, ING1 / Fold change vs veh, ING1 / RFU, TRMT61B / Fold change vs veh, TRMT61B / RFU, FUBP3 / Fold change vs veh, FUBP3 / RFU, TP53 / Fold change vs veh, TP53 / RFU, TNKS2 / Fold change vs veh, TNKS2 / RFU, ZFP14 / Fold change vs veh, ZFP14 / RFU, ACTR2 / Fold change vs veh, ACTR2 / RFU, PPP3R1 / Fold change vs veh, PPP3R1 / RFU, PIK3R1 / Fold change vs veh, PIK3R1 / RFU, HNRNPA1 / Fold change vs veh, HNRNPA1 / RFU, RNF170 / Fold change vs veh, RNF170 / RFU, ZNF28 / Fold change vs veh, ZNF28 / RFU, RNGTT / Fold change vs veh, RNGTT / RFU, OGT / Fold change vs veh, OGT / RFU, BRD1 / Fold change vs veh, BRD1 / RFU, MARS / Fold change vs veh, MARS / RFU, ZNF655 / Fold change vs veh, ZNF655 / RFU, FAHD1 / Fold change vs veh, FAHD1 / RFU, BDP1 / Fold change vs veh, BDP1 / RFU, LRRCC1 / Fold change vs veh, LRRCC1 / RFU, ARID1A / Fold change vs veh, ARID1A / RFU, ZNF146 / Fold change vs veh, ZNF146 / RFU, ZNF330 / Fold change vs veh, ZNF330 / RFU, GPN3 / Fold change vs veh, GPN3 / RFU, C9orf123 / Fold change vs veh, C9orf123 / RFU, N4BP2L2 / Fold change vs veh, N4BP2L2 / RFU, ARFIP1 / Fold change vs veh, ARFIP1 / RFU, FAM179B / Fold change vs veh, FAM179B / RFU, BCL10 / Fold change vs veh, BCL10 / RFU, UHRF1BP1L / Fold change vs veh, UHRF1BP1L / RFU, BET1 / Fold change vs veh, BET1 / RFU, CNOT2 / Fold change vs veh, CNOT2 / RFU, ZNF268 / Fold change vs veh, ZNF268 / Fold change vs veh, ZNF507 / RFU, DGCR2 / Fold change vs veh, DGCR2 / RFU, WDSUB1 / Fold change vs veh, WDSUB1 / Fold change vs veh, HSP90B1 /// MIR3652 / RFU, ADSS / Fold change vs veh, ADSS / RFU, GK / Fold change vs veh, GK / RFU, ZNF148 / Fold change vs veh, ZNF148 / RFU, TAF9 / Fold change vs veh, TAF9 / RFU, SLC1A5 / Fold change vs veh, SLC1A5 / RFU, SLMO2 / Fold change vs veh, SLMO2 / RFU, ABCC4 / Fold change vs veh, ABCC4 / RFU, LOC101060439 /// RAP1B / Fold change vs veh, LOC101060439 /// RAP1B / RFU, RFX7 / Fold change vs veh, RFX7 / RFU, GTPBP10 / Fold change vs veh, GTPBP10 / RFU, CNEP1R1 / Fold change vs veh, CNEP1R1 / RFU, BIVM-ERCC5 /// ERCC5 / Fold change vs veh, BIVM-ERCC5 /// ERCC5 / RFU, ILF3 / Fold change vs veh, ILF3 / RFU 11762660_at / Fold change /veh 11762660_at / RFU VCAN (11757783_s_at) / Fold change /veh VCAN (11757783_s_at) / RFU DDX43 (11728927_at) / Fold change /veh DDX43 (11728927_at) / RFU KRT8 (11758188_x_at) / Fold change /veh KRT8 (11758188_x_at) / RFU NKD1 (11759106_at) / Fold change /veh NKD1 (11759106_at) / RFU SRD5A1 (11742802_a_at) / Fold change /veh SRD5A1 (11742802_a_at) / RFU TPSAB1 /// TPSB2 (11721975_s_at) / Fold change /veh TPSAB1 /// TPSB2 (11721975_s_at) / RFU GSTM3 (11746129_a_at) / Fold change /veh GSTM3 (11746129_a_at) / RFU IL23R (11737362_x_at) / Fold change /veh IL23R (11737362_x_at) / RFU TMEM51 (11727254_a_at) / Fold change /veh TMEM51 (11727254_a_at) / RFU PIWIL2 (11732686_x_at) / Fold change /veh PIWIL2 (11732686_x_at) / RFU ORM1 (11744905_x_at) / Fold change /veh ORM1 (11744905_x_at) / RFU CCDC152 (11743942_at) / Fold change /veh CCDC152 (11743942_at) / RFU ECM1 (11717891_a_at) / Fold change /veh ECM1 (11717891_a_at) / RFU IL23R (11748794_a_at) / Fold change /veh IL23R (11748794_a_at) / RFU TNFAIP8L3 (11732012_x_at) / Fold change /veh TNFAIP8L3 (11732012_x_at) / RFU MBOAT4 (11741988_at) / Fold change /veh MBOAT4 (11741988_at) / RFU 11764193_at / Fold change /veh 11764193_at / RFU TMEM53 (11763286_at) / Fold change /veh TMEM53 (11763286_at) / RFU MAGEB2 (11727129_at) / Fold change /veh MAGEB2 (11727129_at) / RFU TMEM200A (11744735_a_at) / Fold change /veh TMEM200A (11744735_a_at) / RFU CCDC152 (11751479_a_at) / Fold change /veh CCDC152 (11751479_a_at) / RFU FAM211A (11726209_a_at) / Fold change /veh FAM211A (11726209_a_at) / RFU RGS16 (11746705_a_at) / Fold change /veh RGS16 (11746705_a_at) / RFU VCAN (11755009_s_at) / Fold change /veh VCAN (11755009_s_at) / RFU RHOB (11743442_s_at) / Fold change /veh RHOB (11743442_s_at) / RFU RGS16 (11720943_a_at) / Fold change /veh RGS16 (11720943_a_at) / RFU RGS16 (11720944_at) / Fold change /veh RGS16 (11720944_at) / RFU, VPS4B / Fold change vs veh, VPS4B / RFU, CREB1 / Fold change vs veh, CREB1 / RFU, DNAJC13 / Fold change vs veh, DNAJC13 / RFU, GNAQ / Fold change vs veh, GNAQ / RFU, CDK5R1 / Fold change vs veh, CDK5R1 / RFU, ZRANB3 / Fold change vs veh, ZRANB3 / RFU, CUL4A / Fold change vs veh, CUL4A / RFU, CCNY / Fold change vs veh, CCNY / RFU, UFL1 / Fold change vs veh, UFL1 / RFU, COG3 / Fold change vs veh, COG3 / RFU, DIAPH2 / Fold change vs veh, DIAPH2 / RFU, SKA2 / Fold change vs veh, SKA2 / RFU, AFF3 / Fold change vs veh, AFF3 / RFU, LMF1 / Fold change vs veh, LMF1 / RFU, IPO11 / Fold change vs veh, IPO11 / RFU, DFFB / Fold change vs veh, DFFB / RFU, FOXP1 / Fold change vs veh, FOXP1 / RFU, CARD8 / Fold change vs veh, CARD8 / RFU, STRN3 / Fold change vs veh, STRN3 / RFU, ADK / Fold change vs veh, ADK / RFU, RASSF2 / Fold change vs veh, RASSF2 / RFU, WIPF1 / Fold change vs veh, WIPF1 / RFU, LARP1B / Fold change vs veh, LARP1B / RFU, RASA1 / Fold change vs veh, RASA1 / RFU, RB1 / Fold change vs veh, RB1 / RFU, PPFIA1 / Fold change vs veh, PPFIA1 / RFU, MAT2A / Fold change vs veh, MAT2A / RFU, CCT5 / Fold change vs veh, CCT5 / RFU, WDR92 / Fold change vs veh, WDR92 / RFU, CUX1 / Fold change vs veh, CUX1 / RFU, TTC7A / Fold change vs veh, TTC7A / RFU, TMEM135 / Fold change vs veh, TMEM135 / RFU, DEPTOR / Fold change vs veh, DEPTOR / RFU, CPM / Fold change vs veh, CPM / RFU, DNAJB6 / Fold change vs veh, DNAJB6 / RFU, CACNA2D3 / Fold change vs veh, CACNA2D3 / RFU, DTX4 / Fold change vs veh, DTX4 / RFU, TFCP2 / Fold change vs veh, TFCP2 / RFU, GMCL1 /// GMCL1P1 / Fold change vs veh, GMCL1 /// GMCL1P1 / RFU, AEBP2 / Fold change vs veh, AEBP2 / RFU, SNHG1 /// SNORD22 /// SNORD25 /// SNORD26 /// SNORD27 /// SNORD28 /// SNORD29 /// SNORD31 / Fold change vs veh, SNHG1 /// SNORD22 /// SNORD25 /// SNORD26 /// SNORD27 /// SNORD28 /// SNORD29 /// SNORD31 / Fold change (Aza/veh), C12orf56 (ProbeSet 11735607_a_at) / Fold change (ACY-1035/veh), C12orf56 (ProbeSet 11735607_a_at) / Fold change (Aza/veh), FGFR1OP (ProbeSet 11751329_s_at) / Fold change (ACY-1035/veh), FGFR1OP (ProbeSet 11751329_s_at) / Fold change (Aza/veh), VPS36 (ProbeSet 11739960_a_at) / Fold change (ACY-1035/veh), VPS36 (ProbeSet 11739960_a_at) / RFU SYPL1 (11715823_x_at) / Fold change /veh SYPL1 (11715823_x_at) / RFU IGFBP7 (11715501_s_at) / Fold change /veh IGFBP7 (11715501_s_at) / RFU REEP3 (11722064_at) / Fold change /veh REEP3 (11722064_at) / RFU IGLL1 (11728026_x_at) / Fold change /veh IGLL1 (11728026_x_at): dose or concentration left out as unconfirmed",
  "conditions": "ProbeSet 11752001_a_at; LIST D",
  "data": [
    {"molecule": "Nc1ccc(-c2cccs2)cc1NC(=O)c1ccc2c(c1)cc(C1CC1)n2CCN1CCOCC1", "note": "[ACY-1035]", "values": [
      {"measurement": "RFU, CUL4A", "result": 438.04, "unit": "RFU"}
    ]}
  ]
}
